Data from patent US10077287B2, “Tubulysin analogs and methods of making and use” (priority 2014, dated 2018).

How the values were obtained:
[1] = tested on: ADR (human breast cancer, multi-drug resistant); assay: Inhibition of cell proliferation (ATP luminescence or MTS assay), ADR; type: cell-based; settings: 72 h, read-out: Cancer Cell Line: EC50 (nM) ADR
Description: (§1) The cancer cells lines tested against were: H226 (human lung cancer); N87 (human gastric cancer), OVCAR3 (human ovarian cancer), HCT116 (human colon cancer), HCT116NM46 (HCT116 subline with multi-drug resistance, including to paclitaxel), and ACR (human breast cancer, multi-drug resistant). Table II also includes comparative data against reference compounds (A)-(G) not according to this invention:
(§2) The ability of test compounds to inhibit cell proliferation was measured by either an ATP luminescence assay or an MTS cell proliferation assay. […] In some instances, both methods were used.
This is a general procedure for an ATP luminescence assay: Cells are seeded at 1×10^3 cells/well in 96-well plates for 3 h for ATP CellTiterGlo™ assays, respectively. Serial dilutions (1:3) of compounds are added to the wells. Plates are allowed to incubate for 72 h. […]
The following is a description of the MTS cell proliferation assay: CellTiter 96 Aqueous Non-Radioactive Cell proliferation Kit from Promega (Madison, Wis.) is used to determine the number of viable cells in cell proliferation assay. […] Absorbance at 490 nm is measured on an Envision reader (Perkin Elmer, Boston, Mass.). […] The plates are further incubated at 37° C. in 5% CO2 for three hours and the absorbance values at A490 were measured on an Envision reader.

H226 (human lung cancer) = assay: Inhibition of cell proliferation (ATP luminescence or MTS assay), H226; type: cell-based; settings: NCI-H226, 72 h, read-out: Cancer Cell Line: EC50 (nM) H226
Description: as §1, §2
(§3) This is a general procedure for an ATP luminescence assay: Cells are seeded at 1×10^3 cells/well in 96-well plates for 3 h for ATP CellTiterGlo™ assays, respectively. Serial dilutions (1:3) of compounds are added to the wells. Plates are allowed to incubate for 72 h. A CellTiterGlo™ cell viability kit from Promega is used to measure ATP content of cells treated with test compounds following manufacturer's instruction. A decrease in the ATP content is a measure of decrease in cellular viability. The EC50 value—the concentration at which an agent reduces cell viability by 50% of the maximum effect—is determined using PRISM™ software, version 5.0 (GraphPad Software, La Jolla, Calif., USA).
(§4) The following is a description of the MTS cell proliferation assay: CellTiter 96 Aqueous Non-Radioactive Cell proliferation Kit from Promega (Madison, Wis.) is used to determine the number of viable cells in cell proliferation assay. Tumor cells are plated at certain seeding densities in sterile 384-well black clear bottom Matrix plates at 40 μL per well and incubated overnight at 37° C. in 5% CO2 before assaying. On the next day, one set of cell plates (T0 plates) is used to determine time zero cell density, and 3-(4,5-dimethylthiazol-2-yl)-5-(3-carboxymethoxyphenyl)-2-(4-sulfophenyl)-2H-tetrazolium is added at 4 μL/well into T0 plates followed by incubation at 37° C. in 5% CO2 for three hours. This tetrazolium reagent is bioreduced by […] to form a formazan product which is soluble in aqueous solution. Absorbance at 490 nm is measured on an Envision reader (Perkin Elmer, Boston, Mass.). On the same day, compounds are added into remaining cell plates (T72 plates) and incubated at 37° C. in 5% CO2. After 72 hours, 4 μL MTS reagents are then added into those cell plates. The plates are further incubated at 37° C. in 5% CO2 for three hours and the absorbance values at A490 were measured on an Envision reader.

[2] = tested on: OVCAR3 (human ovarian cancer); assay: Inhibition of cell proliferation (ATP luminescence or MTS assay), OVCAR3; type: cell-based; settings: OVCAR-3, 72 h, read-out: Cancer Cell Line: EC50 (nM) OVCAR3
Description: as §1, §2, §3, §4

[3] = tested on: HCT116 (human colon cancer); assay: Inhibition of cell proliferation (ATP luminescence or MTS assay), HCT116; type: cell-based; settings: HCT-116, 72 h, read-out: Cancer Cell Line: EC50 (nM) HCT116
Description: as §1, §2, §3, §4

[4] = tested on: N87 (human gastric cancer); assay: Inhibition of cell proliferation (ATP luminescence or MTS assay), N87; type: cell-based; settings: 72 h, read-out: Cancer Cell Line: EC50 (nM) N87
Description: as §1, §2, §3, §4

[5] = tested on: HCT116/VM46 (HCT116 subline with multi-drug resistance, including to paclitaxel); assay: Inhibition of cell proliferation (ATP luminescence or MTS assay), HCT116/VM46; type: cell-based; settings: Homo sapiens, HCT-116/VM46, multi-drug resistant HCT116 subline, 72 h, read-out: Cancer Cell Line: EC50 (nM) HCT116/VM46
Description: as §1, §2, §3, §4

[6] = tested on: various cancer cell lines; settings: Kaur et al. 2006; cited from earlier work
cancer cells [7] = settings: Kaur et al. 2006; cited from earlier work
cancer cells [8] = settings: cancer cells versus normal cells; Kaur et al. 2006; cited from earlier work
[9] = in vitro assays; Kaur et al. 2006; cited from earlier work

SMILES	EC50 [1] [nM]	EC50 (H226 (human lung cancer)) [nM]	EC50 [2] [nM]	EC50 [3] [nM]	EC50 [4] [nM]	EC50 [5] [nM]	activity in xenograft assays [6]	antiproliferative potency compared with paclitaxel and vinblastine (cancer cells [7])	induction of apoptosis (cancer cells [8])	antiangiogenic properties [9]
CCCN(C(=O)[C@@H](NC(=O)[C@H]1CCCCN1C)[C@@H](C)CC)[C@H](C[C@@H](OC(=O)NC)c1nc(C(=O)N[C@H](CCC(=O)O)Cc2ccc(N)cc2)cs1)C(C)C [(E), reference compound]	189	28								
CCCN(C(=O)[C@@H](NC(=O)[C@H]1CCCCN1C)C(C)C)[C@H](C[C@@H](OC(C)=O)c1nc(C(=O)N[C@@H](Cc2ccc(N)cc2)CC(C)(C)C(=O)O)cs1)C(C)C [(Ia-3)]		0.086	0.019	0.13	0.16	0.19				
CCCN(C(=O)[C@@H](NC(=O)[C@H]1CCCCN1C)[C@@H](C)CC)[C@H](C[C@@H](OC(=O)NC)c1nc(C(=O)N[C@@H](Cc2ccc(N)cc2)CC2(C(=O)OC)CC2)cs1)C(C)C [(Ib-2), methyl 1-((S)-3-(4-aminophenyl)-2-(2-((5R,7R,10S)-10-((S)-sec-butyl)-7-isopropyl-12-((R)-1-methylpiperidin-2-yl)-3,9,12-trioxo-8-propyl-4-oxa-2,8,11-triazadodecan-5-yl)thiazole-4-carboxamido)propyl)cyclopropanecarboxylate]		0.4	0.15		4.4					
CCCN(C(=O)[C@@H](NC(=O)[C@H](NC)C(C)C)[C@@H](C)CC)[C@H](C[C@@H](OC(=O)NC)c1nc(C(=O)N[C@@H](Cc2ccccc2)CC(C)(C)C(=O)O)cs1)C(C)C [(Ic-2)]		0.31	0.04	0.26	0.37	7.5				
CCCN(C(=O)[C@@H](NC(=O)[C@H]1CCCCN1C)[C@@H](C)CC)[C@H](C[C@@H](OC(=O)NC)c1nc(C(=O)N[C@@H](Cc2ccc(N)cc2)CC(C)(C)C(=O)O)cs1)C(C)C [(Ia-2), (S)-5-(4-aminophenyl)-4-(2-((5R,7R,10S)-10-((S)-sec-butyl)-7-isopropyl-12-((R)-1-methylpiperidin-2-yl)-3,9,12-trioxo-8-propyl-4-oxa-2,8,11-triazadodecan-5-yl)thiazole-4-carboxamido)-2,2-dimethylpentanoic acid]	9.5	0.33 to 1.1	0.07 to 0.1	0.58	0.65 to 1	1.22				
CC[C@H](C)[C@H](NC(=O)[C@H]1CCCCN1C)C(=O)N(COC(=O)CC(C)C)[C@H](C[C@@H](OC(C)=O)c1nc(C(=O)N[C@@H](Cc2ccc(O)cc2)C[C@H](C)C(=O)O)cs1)C(C)C [tubulysin A]							active in xenograft assays	more potent than paclitaxel and vinblastine	induced apoptosis in cancer cells but not in normal cells	significant potential antiangiogenic properties
CCCN(C(=O)[C@@H](NC(=O)[C@H]1CCCCN1C)[C@@H](C)CC)[C@H](C[C@@H](OC(C)=O)c1nc(C(=O)N[C@@H](Cc2ccc(N)cc2)CC(C)(C)C(=O)O)cs1)C(C)C [(Ia-1)]		0.089	0.016 to 0.04		0.03 to 0.2					
CCCN(C(=O)[C@@H](NC(=O)[C@H](NC)C(C)C)[C@@H](C)CC)[C@H](C[C@@H](OC(C)=O)c1nc(C(=O)N[C@@H](Cc2ccccc2)CC(C)(C)C(=O)O)cs1)C(C)C [(Ic-1), (S)-4-(2-((3R,6S,9R,11R)-6-((S)-sec-butyl)-3,9-diisopropyl-4,7,13-trioxo-8-propyl-12-oxa-2,5,8-triazatetradecan-11-yl)thiazole-4-carboxamido)-2,2-dimethyl-5-phenylpentanoic acid]		0.038	0.012	0.064	0.2	0.51				
CCCN(C(=O)[C@@H](NC(=O)[C@H]1CCCCN1C)[C@@H](C)CC)[C@H](C[C@@H](OC(=O)NC)c1nc(C(=O)N[C@@H](Cc2ccc(N)cc2)CC2(C(=O)O)CC2)cs1)C(C)C [(Ib-1), 1-((S)-3-(4-aminophenyl)-2-(2-((5R,7R,10S)-10-((S)-sec-butyl)-7-isopropyl-12-((R)-1-methylpiperidin-2-yl)-3,9,12-trioxo-8-propyl-4-oxa-2,8,11-triazadodecan-5-yl)thiazole-4-carboxamido)propyl)cyclopropanecarboxylic acid]		0.63	0.07		1.7					
